pEC50: −log10 of the molar value.

By pEC50 is commonly meant the EC50 on a negative log10 scale, so that one unit is a factor of ten.

The target of the first experiment is T1, h FPR2 (Homo sapiens, UniProt P25090).
T1 construct: expressed in transfected cells
T1 sequence (P25090 1-351): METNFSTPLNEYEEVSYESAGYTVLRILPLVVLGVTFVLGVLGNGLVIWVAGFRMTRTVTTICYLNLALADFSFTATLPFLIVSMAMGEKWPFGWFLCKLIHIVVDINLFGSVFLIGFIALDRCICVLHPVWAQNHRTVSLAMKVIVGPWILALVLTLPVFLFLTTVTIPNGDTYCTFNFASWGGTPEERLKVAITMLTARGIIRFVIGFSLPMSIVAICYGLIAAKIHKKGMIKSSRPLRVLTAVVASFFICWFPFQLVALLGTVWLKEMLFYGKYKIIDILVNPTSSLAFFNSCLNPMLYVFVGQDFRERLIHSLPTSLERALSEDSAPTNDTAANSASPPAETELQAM
As to the kind of experiment: Agonistic activity in hFPR2-Aq-CHO cells (FLIPR Calcium 5 fluorescence assay). In kind it is cell-based. Conditions: 11 point half log dilution, final assay concentration from 10µM. A digest of the protocol:
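hFPR2-Aq-CHO cells were loaded with Calcium 5 dye for 30 min at 37 °C and equilibrated 10 min at room temperature. Compound (11 points, 10 µM to 100 pM final) was added in HBSS/HEPES/probenecid buffer pH 7.4. Fluorescence rise over basal across 5 min, relative to no-compound wells, gave EC50.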
As for `Cc1ncc(CN2CC[C@@H](NC(=O)Nc3ccc(Cl)cc3)[C@H](c3ccc(Cl)s3)C2)cn1` (relative stereo) [Ex-76, trans-1-(4-chlorophenyl)-3-[3-(5-chlorothiophen-2-yl)-1-[(2-methylpyrimidin-5-yl)methyl]piperidin-4-yl]urea], the pEC50 was 8.70.

With `COc1ccc([C@@H]2CN(C(=O)C3CCC(OC)CC3)CC[C@H]2NC(=O)Nc2ccc(Cl)cc2)nc1` (relative stereo) [Ex-81, trans-1-(4-chloro-phenyl)-3-[5-methoxy-1'-(4-methoxy-cyclohexanecarbonyl)-1',2',3',4',5',6'-hexahydro-[2,3']bipyridinyl-4'-yl]-urea], the pEC50 was 7.89.

`COc1ccc([C@@H]2CN(C(=O)C3CCNCC3)CC[C@H]2NC(=O)Nc2ccccc2)nc1` (relative stereo) [Ex-151, trans-1-[3-(5-Methoxy-pyridin-2-yl)-1-(piperidine-4-carbonyl)-piperidin-4-yl]-3-phenyl-urea]: the pEC50 was 7.46.

As for `COc1ccc([C@H]2CN(CC(F)F)CC[C@@H]2NC(=O)Nc2cc(C)ns2)nc1` [Ex-214], the pEC50 is 9.10.

Regarding `COc1ccc([C@@H]2CN(CC3COC3)CC[C@H]2NC(=O)Nc2ccccc2)nc1` (relative stereo) [Ex-161, trans-1-[3-(5-Methoxy-pyridin-2-yl)-1-(oxetan-3-yl-methyl)-piperidin-4-yl]-3-phenyl-urea], the pEC50 is 7.55.

For `O=C(Nc1ccc(Cl)cc1)N[C@@H]1CCN(Cc2ncccn2)C[C@H]1c1ccc(Cl)s1` (single isomer, unassigned) [Ex-47, trans-1-(4-chlorophenyl)-3-[3-(5-chlorothiophen-2-yl)-1-(pyrimidin-2-ylmethyl)piperidin-4-yl]urea], the negative logarithm of the EC50 (pEC50) was 7.19.

For `COc1ccc([C@@H]2CN(C(=O)CN(C)C)CC[C@H]2NC(=O)Nc2ccccc2)nc1` (relative stereo) [Ex-157, trans-1-[1-(2-Dimethylamino-acetyl)-3-(5-methoxy-pyridin-2-yl)-piperidin-4-yl]-3-phenyl-urea], the negative logarithm of the EC50 (pEC50) was 7.09.

Turning to `CNCCN1CC[C@@H](NC(=O)Nc2cc(C)ns2)[C@H](c2ccc(OC)cn2)C1` (relative stereo) [Ex-134, trans-1-[3-(5-Methoxy-pyridin-2-yl)-1-(2-methylamino-ethyl)-piperidin-4-yl]-3-(3-methyl-isothiazol-5-yl)-urea], the pEC50 was 8.70.

In the case of `COc1ccc([C@@H]2CN(CC(F)F)CC[C@H]2NC(=O)Nc2ccc(Cl)cc2)nc1` (single isomer, unassigned) [Ex-36, trans-1-(4-chlorophenyl)-3-[1-(2,2-difluoroethyl)-3-(5-methoxypyridin-2-yl)piperidin-4-yl]urea], the negative logarithm of the EC50 (pEC50) was 7.07.

As for `COc1ccc([C@@H]2CN(c3ccncn3)CC[C@H]2NC(=O)Nc2ccc(Cl)cc2)nc1` (relative stereo) [Ex-7, trans-1-(4-chloro-phenyl)-3-(5-methoxy-1'-pyrimidin-4-yl-1',2',3',4',5',6'-hexahydro-[2,3']bipyridinyl-4'-yl)-urea], the pEC50 was 9.40.

As to `O=C(Nc1ccc(Cl)cc1)N[C@@H]1CCN(CCCO)C[C@H]1c1ccc(Cl)s1` (relative stereo) [Ex-105, trans-1-(4-chloro-phenyl)-3-[3-(5-chloro-thiophen-2-yl)-1-(3-hydroxy-propyl)-piperidin-4-yl]-urea], the pEC50 is 7.96.

Consider `COc1ccc([C@@H]2CN(Cc3cnc(OC)nc3)CC[C@H]2NC(=O)Nc2ccc(Cl)cc2)nc1` (relative stereo) [Ex-66, trans-1-(4-chlorophenyl)-3-[3-(5-methoxypyridin-2-yl)-1-[(2-methoxypyrimidin-5-yl)methyl]piperidin-4-yl]urea], for which the pEC50 was 9.70.

For `Cc1cc(NC(=O)N[C@@H]2CCN(c3cncc(C)n3)C[C@H]2c2ccc(Cl)cn2)sn1` (relative stereo) [Ex-34, trans-1-[5-chloro-1'-(6-methyl-pyrazin-2-yl)-1',2',3',4',5',6'-hexahydro-[2,3']bipyridinyl-4'-yl]-3-(3-methyl-isothiazol-5-yl)-urea], the negative-log EC50 (pEC50) was 8.40.

Take `COc1ccc([C@@H]2CN(Cc3cnn(S(C)(=O)=O)c3)CC[C@H]2NC(=O)Nc2ccc(C#N)cc2)nc1` (relative stereo) [Ex-140, trans-1-(4-Cyano-phenyl)-3-[3-(5-methoxy-pyridin-2-yl)-1-[(1-methylsulfonyl-1H-pyrazol-4-yl)-methyl]-piperidin-4-yl]-urea]: the pEC50 is 9.05.

Take `COc1ccc([C@@H]2CN(CC(F)F)CC[C@H]2NC(=O)Nc2ccc(C#N)cc2)nc1` (single isomer, unassigned) [Ex-174, trans-1-(4-Cyano-phenyl)-3-[1-(2,2-difluoro-ethyl)-3-(5-methoxy-pyridin-2-yl)-piperidin-4-yl]-urea]: the negative logarithm of the EC50 (pEC50) was 8.85.

For `COc1ccc([C@@H]2CN(C(=O)C3CC(O)C3)CC[C@H]2NC(=O)Nc2cc(C)ns2)nc1` (single isomer, unassigned) [Ex-138, trans-1-[1-(3-Hydroxy-cyclobutanecarbonyl)-3-(5-methoxy-pyridin-2-yl)-piperidin-4-yl]-3-(3-methyl-isothiazol-5-yl)-urea], the pEC50 is 8.15.

For `COc1ccc([C@@H]2CN(Cc3cc(C)on3)CC[C@H]2NC(=O)Nc2ccc(Cl)cc2)nc1` (single isomer, unassigned) [Ex-29, trans-1-(4-chlorophenyl)-3-[3-(5-methoxypyridin-2-yl)-1-[(5-methyl-1,2-oxazol-3-yl)methyl]piperidin-4-yl]urea], the pEC50 is 7.96.

For `COc1ccc([C@@H]2CN(C(=O)CO)CC[C@H]2NC(=O)Nc2cc(C)ns2)nc1` (relative stereo) [Ex-123, trans-1-[1-(2-Hydroxy-acetyl)-3-(5-methoxy-pyridin-2-yl)-piperidin-4-yl]-3-(3-methyl-isothiazol-5-yl)-urea], the pEC50 was 7.74.

Take `COc1ccc([C@@H]2CN(C(=O)CN(C)C)CC[C@H]2NC(=O)Nc2ccc(Cl)cc2)nc1` (racemic) [Ex-94, trans-1-(4-chloro-phenyl)-3-[1'-(2-dimethylamino-acetyl)-5-methoxy-1',2',3',4',5',6'-hexahydro-[2,3']bipyridinyl-4'-yl]-urea]: the pEC50 was 8.70.

Regarding `COc1ccc([C@@H]2CN(C3(C#N)CC3)CC[C@H]2NC(=O)Nc2ccc(Cl)cc2)nc1` (relative stereo) [Ex-180, trans-1-(4-Chlorophenyl)-3-[1-(1-cyano-cyclopropyl)-3-(5-methoxy-pyridin-2-yl)-piperidin-4-yl]-urea], the pEC50 was 9.30.

Take `COc1ccc([C@@H]2CN(c3ccc(F)cc3)CC[C@H]2NC(=O)Nc2ccc(Cl)cc2)cn1` (relative stereo) [Ex-2, trans-1-(4-chloro-phenyl)-3-[1-(4-fluoro-phenyl)-6'-methoxy-1,2,3,4,5,6-hexahydro-[3,3']bipyridinyl-4-yl]-urea]: the negative logarithm of the EC50 (pEC50) is 7.96.

With `COc1ccc([C@@H]2CN(CC3CC(OC)C3)CC[C@H]2NC(=O)Nc2ccc(Cl)cc2)nc1` (single isomer, unassigned) [Ex-202, trans-1-(4-chloro-phenyl)-3-[5-methoxy-1'-(3-methoxy-cyclobutylmethyl)-1',2',3',4',5',6'-hexahydro-[2,3']bipyridinyl-4'-yl]-urea], the pEC50 is 8.85.

In the case of `COc1ccc([C@@H]2CN(c3ccncn3)CC[C@H]2NC(=O)Nc2ccc(Cl)cc2)cn1` (relative stereo) [Ex-1, trans-1-(4-chloro-phenyl)-3-(6'-methoxy-1-pyrimidin-4-yl-1,2,3,4,5,6-hexahydro-[3,3']bipyridinyl-4-yl)-urea], the pEC50 was 8.22.

On to `COc1ccc([C@@H]2CN(Cc3ccn(S(C)(=O)=O)n3)CC[C@H]2NC(=O)Nc2ccc(Cl)cc2)nc1` (single isomer, unassigned) [Ex-43, trans-1-(4-chlorophenyl)-3-[1-[(1-methanesulfonyl-1H-pyrazol-3-yl)methyl]-3-(5-methoxypyridin-2-yl)piperidin-4-yl]urea], for which the pEC50 is 10.52.

The experiment is the same for the next values; noted with them: agonistic response at 0.1µM.
As to `Cc1cc(NC(=O)N[C@@H]2CCN(c3ccncn3)C[C@H]2c2ccc(Cl)cn2)sn1` (relative stereo) [Ex-17, trans-1-(5-chloro-1'-pyrimidin-4-yl-1',2',3',4',5',6'-hexahydro-[2,3']bipyridinyl-4'-yl)-3-(3-methyl-isothiazol-5-yl)-urea], the activation at 0.1 µM was determined as 30%.

Consider `COc1ccc([C@@H]2CN(CC(C)(C)O)CC[C@H]2NC(=O)Nc2ccc(Cl)cc2)nc1` (relative stereo) [Ex-178, trans-1-(4-Chlorophenyl)-3-[1-(2-hydroxy-2-methyl-propyl)-3-(5-methoxy-pyridin-2-yl)-piperidin-4-yl]-urea], for which the activation at 0.1 µM came out at 0.2%.

In the case of `COc1ccc([C@@H]2CN(C(=O)c3cnccc3C(F)(F)F)CC[C@H]2NC(=O)Nc2ccc(Cl)cc2)nc1` (relative stereo) [Ex-98, trans-1-(4-chlorophenyl)-3-[3-(5-methoxypyridin-2-yl)-1-{[4-(trifluoromethyl)pyridin-3-yl]carbonyl}piperidin-4-yl]urea], the activation at 0.1 µM is 26%.

On to `O=C(Nc1ccccc1)N[C@@H]1CCN(CCO)C[C@H]1c1ccc(Cl)cn1` (relative stereo) [Ex-152, trans-1-[3-(5-Chloro-pyridin-2-yl)-1-(2-hydroxy-ethyl)-piperidin-4-yl]-3-phenyl-urea], for which the activation at 0.1 µM was 25%.

These data come from patent EP3789378A1, “PIPERIDINES OR PIPERIDONES SUBSTITUTED WITH UREA AND HETEROARYL” (Grünenthal GmbH, priority 2019, dated 2021).
